Laboratory results from patent US11464772B2, “Methods of treating acute or chronic pain” (priority 2017, dated 2022).

Key:
[1] = system: rats post spinal nerve ligation; test: Spinal nerve ligation (SNL), von Frey mechanical withdrawal (FIG. 3); format: in vivo, Sprague Dawley rats; conditions: oral, 100 mg/kg, 14 days post-SNL, tested 1, 2 and 4 hours
Method: Ligation of the L5 and L6 spinal nerves in rats leads to a robust pain state, characterized by tactile allodynia and mechanical hyperalgesia that can be assayed using the von Frey or Hargreaves assays (Kim, S. H. and Chung, J. M. Pain 50 (1992): 355-63). Sprague Dawley rats were housed in the animal vivarium 2 weeks prior to testing and housed on a 12 h light/dark cycle with food and water ad libitum. Under general anesthesia, the L5 and L6 spinal nerves on one side of the rat spine were tightly ligated using sterile surgical suture (Spinal Nerve Ligation, SNL). The incision site of each animal was then closed using standard surgical technique. Spared Nerve Injury: Animals were anesthetized by 2% isoflurane with 98% oxygen inhalation. […] The mechanical allodynia were measured at 60 minutes after administration every day (von Frey Cilia Apparatus, manufactured by Institute of Biology Bioengineering, Chinese Academy of Medical Science).
Baseline mechanical (von Frey) withdrawal responses were tested immediately before SNL surgery and 14 days after. […] Immediately after the 14-day post-surgical baseline responses were measured, Compound A (100 mg/kg), Gabapentin (100 mg/kg), or vehicle (control) were administered orally and voluntary withdrawal from von Frey mechanical stimuli were tested 1 hour, 2 hours and 4 hours later (FIG. 3). […]

[2] = system: rats after intraplantar incision; test: Rodent paw incision, Hargreaves thermal withdrawal assay (FIG. 1); format: in vivo, Sprague Dawley rats; conditions: intravenous, 30 mg/kg, post-surgery baseline, tested 0.5-4 hours
Method: The rodent paw incision model involves inducing a surgical incision to the plantar surface of the back paw of a mouse or rat, suturing the incision closed, then testing the area proximal to the wound for changes in sensory perception, such as allodynia or hypersensitivity, at some point in time after the incision (typically 24 hours later)(Brennan T J et al. Pain. 1996 March, 64(3):493-501). Thermal (Hargreaves) and mechanical (von Frey) sensory testing is performed before and 24 hours after surgical incision of the plantar surface of the left back paw of laboratory rats, at a plantar area adjacent to the incision. […]
Plantar incision of the hind paw of the rat produces a profound local inflammatory response characterized by pain hypersensitivity (allodynia) 24 hours after surgery in rats, in similar manner to the post-operative pain observed in humans (Brennan, T. J. et al. Pain. 1996 March; 64(3):493-501). […] Three days prior to testing the compound, thermal (Hargreaves) and mechanical (von Frey) sensitivity were measured using standard techniques described below. […] The thermal sensitivities of the animals were measured before surgery and 24 hours after surgery using the Hargreaves Thermal Withdrawal Assay (FIG. 1) (Kim, S. H. and Chung, J. M. Pain 50 (1992): 355-63). […]

[3] = system: rat models of neuropathic pain; conditions: rat models of neuropathic pain (Field et al. 1999); cited from earlier work

SMILES | blocking of static and dynamic allodynia [3] | also measured
NCC1(CC(=O)O)CCCCC1 [gabapentin] |  | reversal of reduced mechanical withdrawal thresholds post spinal nerve ligation [1]: reversed
CC(C)Cc1ccc(C(C)C(=O)O)cc1 (stereo not shown) [ibuprofen] |  | reversal of reductions in thermal withdrawal thresholds after intraplantar incision [2]: not reversed
CN1CC[C@]23c4c5ccc(O)c4O[C@H]2[C@@H](O)C=C[C@H]3[C@H]1C5 [morphine] | blocking only static allodynia, and not dynamic allodynia | 
CC(C)C[C@H](CN)CC(=O)O [pregablin] | blocking both types of allodynia | 
